# Results taken from ChEMBL document CHEMBL4673362, “Design, synthesis, and biological evaluation of 2,6,7-substituted pyrrolo[2,3-d]pyrimidines as cyclin dependent kinase inhibitor in pancreatic cancer cells” (Bioorg Med Chem Lett, 2021).
# Calls of active or inactive are those of the source. The rule behind the calls is not given here.
# Assays:
# BXPC-3 = assay: Antiproliferative activity against human BxPC-3 cells assessed as inhibition of cell growth by MTT assay; assay type: functional, cell-based
# CDK6/cyclin D1 = CDK6/cyclin D1 (Homo sapiens, UniProt Q00534); assay: Inhibition of CDK6/cyclin D1 (unknown origin); assay type: protein-complex assay
# Chain of CDK6/cyclin D1 (P24385 whole entry): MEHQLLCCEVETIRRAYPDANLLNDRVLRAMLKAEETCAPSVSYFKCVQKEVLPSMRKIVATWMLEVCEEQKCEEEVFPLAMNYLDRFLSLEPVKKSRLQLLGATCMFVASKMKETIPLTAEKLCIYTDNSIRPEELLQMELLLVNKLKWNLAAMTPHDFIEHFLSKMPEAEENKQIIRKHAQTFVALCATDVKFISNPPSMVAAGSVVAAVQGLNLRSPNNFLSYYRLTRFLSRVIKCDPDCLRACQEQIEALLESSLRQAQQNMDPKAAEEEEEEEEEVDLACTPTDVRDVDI
# Chain of CDK6/cyclin D1 (Q00534 whole entry): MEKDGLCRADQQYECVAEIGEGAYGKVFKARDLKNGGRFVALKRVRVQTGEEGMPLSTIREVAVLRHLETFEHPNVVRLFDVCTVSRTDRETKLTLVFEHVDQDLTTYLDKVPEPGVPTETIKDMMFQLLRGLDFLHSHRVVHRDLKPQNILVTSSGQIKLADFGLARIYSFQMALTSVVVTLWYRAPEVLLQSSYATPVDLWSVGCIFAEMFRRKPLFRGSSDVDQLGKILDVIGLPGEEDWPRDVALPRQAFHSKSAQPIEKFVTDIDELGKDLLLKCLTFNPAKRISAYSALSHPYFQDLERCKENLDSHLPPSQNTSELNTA
# [1] = biological target: Cyclin-dependent kinase 4/cyclin D1 (Homo sapiens, UniProt P11802); assay: Inhibition of CDK4/cyclin D1 (unknown origin); assay type: protein-complex assay
# Chain of Cyclin-dependent kinase 4/cyclin D1 (P11802 whole entry): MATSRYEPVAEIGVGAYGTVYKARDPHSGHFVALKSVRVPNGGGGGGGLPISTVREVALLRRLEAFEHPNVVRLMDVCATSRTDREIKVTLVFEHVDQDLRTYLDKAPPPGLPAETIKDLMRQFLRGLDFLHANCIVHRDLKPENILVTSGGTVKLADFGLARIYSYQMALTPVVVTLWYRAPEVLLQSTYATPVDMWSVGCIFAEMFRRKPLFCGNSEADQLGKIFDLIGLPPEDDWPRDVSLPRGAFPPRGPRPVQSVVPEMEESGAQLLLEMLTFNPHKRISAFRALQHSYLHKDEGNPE
# Chain of Cyclin-dependent kinase 4/cyclin D1 (P24385 whole entry, further chain): as the sequence (P24385 whole entry) above
# MIA PaCa-2 [2] = assay: Antiproliferative activity against human MIA PaCa-2 cells assessed as inhibition of cell growth by MTT assay; assay type: functional, cell-based
# [3] = biological target: Cyclin-dependent kinase 6 (Homo sapiens) (UniProt Q00534); assay: Inhibition of CDK6 (unknown origin) at 1 uM
# Chain of Cyclin-dependent kinase 6 (Homo sapiens) (Q00534 whole entry): as the sequence (Q00534 whole entry) above
# [4] = biological target: Cyclin-dependent kinase 4 (Homo sapiens) (UniProt P11802); assay: Inhibition of CDK4 (unknown origin) at 1 uM
# Chain of Cyclin-dependent kinase 4 (Homo sapiens) (P11802 whole entry): as the sequence (P11802 whole entry) above
# [5] = biological target: Cyclin-dependent kinase 9 (Homo sapiens) (UniProt P50750); assay: Inhibition of CDK9 (unknown origin) at 1 uM
# Chain of Cyclin-dependent kinase 9 (Homo sapiens) (P50750 whole entry): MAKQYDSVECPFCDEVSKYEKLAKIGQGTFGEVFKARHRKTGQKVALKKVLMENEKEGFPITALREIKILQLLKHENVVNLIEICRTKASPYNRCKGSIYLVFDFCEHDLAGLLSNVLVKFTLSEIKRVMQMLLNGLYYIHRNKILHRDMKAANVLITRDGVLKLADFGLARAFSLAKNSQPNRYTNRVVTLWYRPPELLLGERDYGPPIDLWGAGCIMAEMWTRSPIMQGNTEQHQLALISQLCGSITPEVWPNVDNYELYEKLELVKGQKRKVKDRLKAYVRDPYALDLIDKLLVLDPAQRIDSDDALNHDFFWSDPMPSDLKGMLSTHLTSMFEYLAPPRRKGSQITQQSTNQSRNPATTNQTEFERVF
# [6] = biological target: Cyclin-dependent kinase 7 (Homo sapiens) (UniProt P50613); assay: Inhibition of CDK7 (unknown origin) at 1 uM
# [7] = biological target: Cyclin-dependent kinase 8 (Homo sapiens) (UniProt P49336); assay: Inhibition of CDK8 (unknown origin) at 1 uM
# Chain of Cyclin-dependent kinase 8 (Homo sapiens) (P49336 whole entry): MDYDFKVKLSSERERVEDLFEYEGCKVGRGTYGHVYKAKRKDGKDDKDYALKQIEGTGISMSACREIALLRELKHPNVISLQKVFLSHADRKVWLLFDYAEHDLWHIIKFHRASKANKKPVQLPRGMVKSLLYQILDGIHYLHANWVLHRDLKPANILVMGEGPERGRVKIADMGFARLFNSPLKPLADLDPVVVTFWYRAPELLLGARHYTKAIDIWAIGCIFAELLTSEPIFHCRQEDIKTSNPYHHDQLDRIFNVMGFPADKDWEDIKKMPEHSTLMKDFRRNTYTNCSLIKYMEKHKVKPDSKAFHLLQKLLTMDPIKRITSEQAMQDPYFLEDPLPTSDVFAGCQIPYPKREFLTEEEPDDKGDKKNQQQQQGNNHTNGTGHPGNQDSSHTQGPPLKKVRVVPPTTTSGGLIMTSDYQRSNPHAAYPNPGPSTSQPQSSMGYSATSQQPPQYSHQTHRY
# [8] = biological target: Cyclin-dependent kinase 5 (Homo sapiens) (UniProt Q00535); assay: Inhibition of CDK5 (unknown origin) at 1 uM
# [9] = biological target: Cyclin-dependent kinase 3 (Homo sapiens) (UniProt Q00526); assay: Inhibition of CDK3 (unknown origin) at 1 uM
# Chain of Cyclin-dependent kinase 3 (Homo sapiens) (Q00526 whole entry, looked up): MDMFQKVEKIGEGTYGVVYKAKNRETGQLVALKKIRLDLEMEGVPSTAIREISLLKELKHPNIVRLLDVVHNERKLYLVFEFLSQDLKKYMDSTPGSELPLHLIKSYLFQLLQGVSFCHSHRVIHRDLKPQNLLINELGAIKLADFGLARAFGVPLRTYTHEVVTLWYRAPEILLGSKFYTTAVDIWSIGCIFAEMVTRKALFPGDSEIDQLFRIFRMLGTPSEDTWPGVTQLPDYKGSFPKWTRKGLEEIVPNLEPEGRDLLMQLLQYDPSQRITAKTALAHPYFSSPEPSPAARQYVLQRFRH
# [10] = biological target: Cyclin-dependent kinase 2 (Homo sapiens) (UniProt P24941); assay: Inhibition of CDK2 (unknown origin) at 1 uM
# [11] = biological target: Cyclin-dependent kinase 1 (Homo sapiens) (UniProt P06493); assay: Inhibition of CDK1 (unknown origin) at 1 uM
# Chain of Cyclin-dependent kinase 1 (Homo sapiens) (P06493 whole entry, looked up): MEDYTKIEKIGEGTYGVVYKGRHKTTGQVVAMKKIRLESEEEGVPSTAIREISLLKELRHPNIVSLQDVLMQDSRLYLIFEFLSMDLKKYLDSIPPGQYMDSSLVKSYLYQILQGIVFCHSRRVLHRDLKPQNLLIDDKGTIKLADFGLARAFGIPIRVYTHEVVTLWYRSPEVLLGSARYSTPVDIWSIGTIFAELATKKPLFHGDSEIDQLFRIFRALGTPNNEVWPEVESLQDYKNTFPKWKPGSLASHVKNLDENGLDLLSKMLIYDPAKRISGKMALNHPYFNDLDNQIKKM
# [12] = biological target: CDK6/cyclin D1 (Homo sapiens) (UniProt P24385+Q00534); assay: Inhibition of human CDK6/cyclin D1 at 1 uM relative to control; assay type: protein-complex assay
# [13] = biological target: Cyclin-dependent kinase 4/cyclin D1 (Homo sapiens) (UniProt P11802+P24385); assay: Inhibition of human CDK4/cyclin D1 at 1 uM relative to control; assay type: protein-complex assay
# [14] = biological target: CDK4/Cyclin D3 (Homo sapiens) (UniProt P11802+P30281); assay: Inhibition of human CDK4/cyclin D3 at 1 uM relative to control; assay type: protein-complex assay
# [15] = biological target: Mitogen-activated protein kinase kinase kinase 9 (Homo sapiens) (UniProt P80192); assay: Inhibition of human MLK1 at 1 uM relative to control
# Chain of Mitogen-activated protein kinase kinase kinase 9 (Homo sapiens) (P80192 whole entry, looked up): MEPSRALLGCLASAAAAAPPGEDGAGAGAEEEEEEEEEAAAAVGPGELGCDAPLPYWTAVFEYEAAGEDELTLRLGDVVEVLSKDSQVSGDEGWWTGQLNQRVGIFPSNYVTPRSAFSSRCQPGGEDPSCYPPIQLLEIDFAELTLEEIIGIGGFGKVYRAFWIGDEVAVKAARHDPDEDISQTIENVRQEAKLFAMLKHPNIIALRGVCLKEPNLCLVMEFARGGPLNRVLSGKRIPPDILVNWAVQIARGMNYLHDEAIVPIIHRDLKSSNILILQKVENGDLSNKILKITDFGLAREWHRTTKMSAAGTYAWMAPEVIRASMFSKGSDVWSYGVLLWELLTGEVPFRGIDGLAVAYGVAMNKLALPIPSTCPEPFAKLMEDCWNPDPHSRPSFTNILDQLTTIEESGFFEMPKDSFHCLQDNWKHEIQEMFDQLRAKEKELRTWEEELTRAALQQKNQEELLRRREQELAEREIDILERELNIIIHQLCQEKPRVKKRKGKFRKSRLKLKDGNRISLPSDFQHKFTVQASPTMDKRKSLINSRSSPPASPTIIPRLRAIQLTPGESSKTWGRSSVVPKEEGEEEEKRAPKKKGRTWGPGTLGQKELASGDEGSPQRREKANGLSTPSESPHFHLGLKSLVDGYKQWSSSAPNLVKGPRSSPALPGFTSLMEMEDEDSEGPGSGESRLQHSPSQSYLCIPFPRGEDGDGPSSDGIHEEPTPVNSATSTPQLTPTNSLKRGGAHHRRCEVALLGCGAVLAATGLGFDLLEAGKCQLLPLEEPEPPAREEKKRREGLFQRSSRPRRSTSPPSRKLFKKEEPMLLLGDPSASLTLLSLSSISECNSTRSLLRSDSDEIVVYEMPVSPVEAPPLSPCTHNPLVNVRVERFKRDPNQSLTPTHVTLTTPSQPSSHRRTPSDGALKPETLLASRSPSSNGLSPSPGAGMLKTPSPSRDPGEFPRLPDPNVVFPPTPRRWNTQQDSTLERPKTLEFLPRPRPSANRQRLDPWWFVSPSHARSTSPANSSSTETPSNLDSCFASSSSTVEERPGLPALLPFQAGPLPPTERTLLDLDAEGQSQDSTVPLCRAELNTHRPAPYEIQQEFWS
# [16] = biological target: Tyrosine-protein kinase Fer (Homo sapiens) (UniProt P16591); assay: Inhibition of human FER at 1 uM relative to control
# [17] = biological target: Calcium/calmodulin-dependent protein kinase type 1 (Homo sapiens) (UniProt Q14012); assay: Inhibition of human CAMK1 at 1 uM relative to control
# [18] = biological target: Calcium/calmodulin-dependent protein kinase kinase 1 (Homo sapiens) (UniProt Q8N5S9); assay: Inhibition of human CAMKKA at 1 uM relative to control
# Chain of Calcium/calmodulin-dependent protein kinase kinase 1 (Homo sapiens) (Q8N5S9 whole entry, looked up): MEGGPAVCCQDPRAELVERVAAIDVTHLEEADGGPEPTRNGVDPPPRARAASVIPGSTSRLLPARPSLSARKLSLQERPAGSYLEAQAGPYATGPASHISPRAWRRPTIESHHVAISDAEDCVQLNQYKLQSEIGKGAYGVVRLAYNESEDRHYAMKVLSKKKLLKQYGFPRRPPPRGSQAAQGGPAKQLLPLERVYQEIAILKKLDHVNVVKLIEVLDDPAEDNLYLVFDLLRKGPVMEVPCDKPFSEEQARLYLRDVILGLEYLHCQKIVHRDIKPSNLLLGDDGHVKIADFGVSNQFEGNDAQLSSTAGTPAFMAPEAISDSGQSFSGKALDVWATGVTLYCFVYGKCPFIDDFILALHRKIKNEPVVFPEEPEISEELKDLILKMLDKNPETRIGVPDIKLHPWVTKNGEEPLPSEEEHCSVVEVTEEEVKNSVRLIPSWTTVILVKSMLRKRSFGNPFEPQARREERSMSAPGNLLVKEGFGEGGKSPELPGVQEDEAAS
# [19] = biological target: Dual specificity protein kinase TTK (Homo sapiens) (UniProt P33981); assay: Inhibition of human TTK at 1 uM relative to control
# MIA PaCa-2 [20] = assay: Cell cycle arrest in human MIA PaCa-2 cells assessed as accumulation at G1 phase at 2.5 uM (reference value: 44.09 %); assay type: functional
# MIA PaCa-2 [21] = assay: Cell cycle arrest in human MIA PaCa-2 cells assessed as accumulation at G1 phase at 1.6 uM (reference value: 44.09 %); assay type: functional
# MIA PaCa-2 [22] = assay: Cell cycle arrest in human MIA PaCa-2 cells assessed as accumulation at G1 phase at 0.8 uM (reference value: 44.09 %); assay type: functional
# MIA PaCa-2 [23] = assay: Cell cycle arrest in human MIA PaCa-2 cells assessed as accumulation at G2 phase at 2.5 uM (reference value: 10.64 %); assay type: functional
# MIA PaCa-2 [24] = assay: Cell cycle arrest in human MIA PaCa-2 cells assessed as accumulation at G2 phase at 1.6 uM (reference value: 10.64 %); assay type: functional
# MIA PaCa-2 [25] = assay: Cell cycle arrest in human MIA PaCa-2 cells assessed as accumulation at G2 phase at 0.8 uM (reference value: 10.64 %); assay type: functional
# MIA PaCa-2 [26] = assay: Cell cycle arrest in human MIA PaCa-2 cells assessed as accumulation at S phase at 2.5 uM (reference value: 45.27 %); assay type: functional
# MIA PaCa-2 [27] = assay: Cell cycle arrest in human MIA PaCa-2 cells assessed as accumulation at S phase at 1.6 uM (reference value: 45.27 %); assay type: functional
# MIA PaCa-2 [28] = assay: Cell cycle arrest in human MIA PaCa-2 cells assessed as accumulation at S phase at 0.8 uM (reference value: 45.27 %); assay type: functional
# [29] = biological target: Cyclin-dependent kinase 9 (Homo sapiens) (UniProt P50750); assay: Inhibition of CDK9 (unknown origin) at 1 uM relative to control
# [30] = Solubility of the compound at pH 7.4; assay type: physicochemical; settings: buffer
# [31] = Permeability of the compound at pH 7.4 by PAMPA; assay type: ADME; settings: read-out: permeability
# [32] = Permeability of the compound at pH 5.0 by PAMPA; assay type: ADME; settings: read-out: permeability
# [33] = Metabolic stability in rat liver microsomes assessed as half life; assay type: ADME, Microsome
# [34] = Metabolic stability in human liver microsomes assessed as half life; assay type: ADME, Microsome
IC50 (BXPC-3),IC50 (CDK6/cyclin D1),IC50 [1],IC50 (MIA PaCa-2 [2]),inhibition [3],inhibition [4],SMILES,further results
8.97 µM,391 nM,121 nM,2.88 µM,–,–,COc1ccc(NC(=O)c2cc3cnc(Nc4ccc(N5CCNCC5)cn4)nc3n2C2CCCC2)cc1,–
3.34 µM,64 nM,28.2 nM,2.5 µM,Active,Active,Cc1ccccc1NC(=O)c1cc2cnc(Nc3ccc(N4CCNCC4)cn3)nc2n1C1CCCC1,–
–,–,1190 nM,14 µM,–,–,O=C(Nc1ccccc1)c1cc2cnc(Nc3ccccc3)nc2n1C1CCCC1,–
–,–,> 100000 nM,3.6 µM,inactive,inactive,O=C(Nc1ccccc1)c1cc2cnc(Nc3ccc(N4CCNCC4)cn3)nc2n1Cc1ccccc1,inhibition [5]: inactive; inhibition [6]: inactive; inhibition [7]: inactive; inhibition [8]: inactive; inhibition [9]: inactive; inhibition [10]: inactive; inhibition [11]: inactive; inhibition [12]: inactive; inhibition [13]: inactive; inhibition [14]: inactive; inhibition [15]: inactive; inhibition [16]: inactive; inhibition [17]: inactive; inhibition [18]: inactive; inhibition [19]: inactive
–,–,861 nM,39.6 µM,–,–,O=C(c1cc2cnc(Nc3ccc(N4CCNCC4)cn3)nc2n1C1CCCC1)N1CCCCC1,–
–,–,315 nM,26 µM,–,–,CN(C)C(=O)c1cc2cnc(Nc3cccnc3)nc2n1C1CCCC1,–
8.37 µM,369 nM,45.3 nM,3.67 µM,Active,Active,O=C(Nc1ccccc1F)c1cc2cnc(Nc3ccc(N4CCNCC4)cn3)nc2n1C1CCCC1,–
–,–,379 nM,25 µM,–,–,CN(C)C(=O)c1cc2cnc(NC3CCCCC3)nc2n1C1CCCC1,–
–,–,–,10.6 µM,–,–,CC(=O)c1c(C)c2cnc(Nc3ccc(N4CCNCC4)cn3)nc2n(C2CCCC2)c1=O [PALBOCICLIB],–
4.35 µM,52.8 nM,23 nM,2.17 µM,Active,Active,O=C(Nc1ccccc1Cl)c1cc2cnc(Nc3ccc(N4CCNCC4)cn3)nc2n1C1CCCC1,–
8.04 µM,666 nM,60.3 nM,3.16 µM,Active,Active,O=C(Nc1ccccc1C(F)(F)F)c1cc2cnc(Nc3ccc(N4CCNCC4)cn3)nc2n1C1CCCC1,–
–,–,150 nM,8.25 µM,–,–,Cc1cc(C)nc(NS(=O)(=O)c2ccc(Nc3ncc4cc(C(=O)N(C)C)n(C5CCCC5)c4n3)cc2)n1,Activity (MIA PaCa-2 [20]): 35.53%; Activity (MIA PaCa-2 [21]): 43.39%; Activity (MIA PaCa-2 [22]): 44.7%; Activity (MIA PaCa-2 [23]): 27.08%; Activity (MIA PaCa-2 [24]): 17.5%; Activity (MIA PaCa-2 [25]): 18.44%; Activity (MIA PaCa-2 [26]): 37.29%; Activity (MIA PaCa-2 [27]): 39.11%; Activity (MIA PaCa-2 [28]): 36.86%; inhibition [29]: 99%; solubility [30]: 7.5 µg/mL; Papp [31]: 376 ×10⁻⁶ cm/s; Papp [32]: 443 ×10⁻⁶ cm/s; half-life [33]: > 30 min; half-life [34]: 25.1 min
